Assay results as given in patent US20240002416A1 (Rheinische-Friedrich-Wilhelms-Universität Bonn, priority 2020, published 2024).

Tests used:
Type in all cases: cell-based
[1] = biological target: T1, human MRGPRX4-83L (Homo sapiens, UniProt Q96LA9); assay: Calcium assay (human MRGPRX4 83L), recombinant astrocytes; conditions: for EC50 / Emax: Table 1; for EC50: calcium mobilization, MRGPRX4-83L, read-out: EC50 ± SEM; for Emax: efficacy based on maximal effect of 1 μM B-16 (set as 100%), read-out: Emax
T1 construct: host or cells: CHO β-arrestin cells
T1 sequence (Q96LA9 whole entry): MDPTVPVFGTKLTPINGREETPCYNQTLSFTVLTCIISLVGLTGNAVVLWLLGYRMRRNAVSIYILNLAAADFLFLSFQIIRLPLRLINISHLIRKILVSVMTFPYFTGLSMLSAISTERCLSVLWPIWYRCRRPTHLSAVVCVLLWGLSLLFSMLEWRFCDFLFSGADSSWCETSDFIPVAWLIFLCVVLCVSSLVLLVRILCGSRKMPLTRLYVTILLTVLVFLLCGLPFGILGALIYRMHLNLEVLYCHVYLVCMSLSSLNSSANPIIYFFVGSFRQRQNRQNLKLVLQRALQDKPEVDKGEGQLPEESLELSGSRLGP
Procedure: (§1) For β-arrestin recruitment assays, recombinant Chinese hamster ovary (CHO) cells expressing the human MRGPRX4 were used (DiscoverX/Eurofins) which allowed to measure β-galactosidase complementation upon β-arrestin recruitment. For calcium mobilization assays, recombinant astrocytes expressing MRGPX4-83L, or LN229 glioblastoma cells natively expressing the MRGPRX4-83S, were used.
(§2) The assays were performed as previously described for other rhodopsin-like GPCRs (Müller, C.E.; 8-Benzamidochromen-4-one-2-carboxylic acids: potent and selective agonists for the orphan G protein-coupled receptor GPR35. J. Med. Chem. 2013, 56:5182-97; Müller, C.E. Molecular Recognition of Agonists and Antagonists by the Nucleotide-Activated G Protein-Coupled P2Y2 Receptor. J. Med. Chem. 2017, 60:8425-8440).

[2] = biological target: T1, human MRGPRX4-83L; assay: β-arrestin assay (CHO β-arrestin ARMS1-ProLink 2 human MRGPRX4 83L); conditions: Table 1; for IC50: inhibition of the effect of 2.6 μM B-16; for EC50: β-arrestin recruitment, CHO cells, MRGPRX4-83L, means of 3-4 experiments, read-out: EC50 ± SEM; for Emax: efficacy based on maximal effect of 100 nM B-16 (set as 100%), read-out: Emax
Procedure: as §1, §2

[3] = biological target: T2, MRGPRX4-83S (Homo sapiens, UniProt Q96LA9, L83S); assay: Calcium assay (human glioblastoma LN229 cells expressing the MRGPRX4-83S); set-up: LN229 glioblastoma cells natively expressing the MRGPRX4-83S; endogenous in cells; host or cells: LN229 human glioblastoma cells; conditions: for EC50: calcium mobilization, LN229 cells, MRGPRX4-83S, read-out: EC50 ± SEM; for Emax: LN-229, efficacy based on 30 μM H-1 (set as 100%), read-out: Emax
T2 sequence (Q96LA9 whole entry L83S): as the sequence (Q96LA9 whole entry) above, with L83S counted along it
Procedure: as §1, §2

[4] = biological target: T2, MRGPRX4-83S; assay: β-arrestin assay (CHO β-arrestin human MRGPRX4-83S); set-up: host or cells: CHO β-arrestin cells; conditions: for Emax: efficacy based on 100 nM B-16 (set as 100%), read-out: Emax; for EC50: β-arrestin recruitment, CHO cells, MRGPRX4-83S, read-out: EC50 ± SEM
Procedure: as §1, §2

EC50 [1] [µM]	IC50 [2] [µM]	EC50 [2] [µM]	EC50 ([3]; Table 2) [µM]	Emax [1] [%]	Emax ([4]; Table 2) [%]	EC50 ([4]; Table 2) [nM]	Emax ([3]; Table 2) [%]	Emax [2] [%]	Emax ([4]; Table 3) [%]	EC50 ([4]; Table 3) [nM]	Emax ([3]; Table 3) [%]	EC50 ([3]; Table 3) [µM]	SMILES	IC50 [1] [µM]
> 10	> 10	> 10				> 10000							C#CCn1c(=O)c2[nH]c(CCc3ccccc3Br)nc2n(CCCCS(=O)(=O)O)c1=O [E-1, 4-(8-(2-Bromophenethyl)-2,6-dioxo-1-(prop-2-yn-1-yl)-1,2,6,7-tetrahydro-3H-purin-3-yl)butane-1-sulfonic acid]	> 10
> 10	> 10	> 10				> 10000							C#CCn1c(=O)c2[nH]c(CCc3cccc(OC)c3)nc2n(CCCCS(=O)(=O)O)c1=O [E-3, 4-(8-(3-Methoxyphenethyl)-2,6-dioxo-1-(prop-2-yn-1-yl)-1,2,6,7-tetrahydro-3H-purin-3-yl)butane-1-sulfonic acid]	> 10

The next lines start with the molecule.

SMILES	EC50 [1] [µM]	IC50 [2] [µM]	EC50 [2] [µM]	EC50 ([3]; Table 2) [µM]	Emax [1] [%]	Emax ([4]; Table 2) [%]	EC50 ([4]; Table 2) [nM]	Emax ([3]; Table 2) [%]	Emax [2] [%]	Emax ([4]; Table 3) [%]	EC50 ([4]; Table 3) [nM]	Emax ([3]; Table 3) [%]	EC50 ([3]; Table 3) [µM]	IC50 [1] [µM]
C#CCn1c(=O)c2c(nc(-c3cccc(OC)c3)n2C)n(CCCOP(=O)(O)O)c1=O [A-1, 3-(8-(3-Methoxyphenyl)-7-methyl-2,6-dioxo-1-(prop-2-yn-1-yl)-1,2,6,7-tetrahydro-3H-purin-3-yl)propyl dihydrogen phosphate, reference compound]	> 10	> 10	> 10	> 10										> 10
C#CCn1c(=O)c2[nH]c(CCc3ccccc3)nc2n(CCCCP(=O)(O)O)c1=O [B-1, (4-(2,6-Dioxo-8-phenethyl-1-(prop-2-yn-1-yl)-1,2,6,7-tetrahydro-3H-purin-3-yl)butyl)phosphonic acid]	3.25 ± 0.61	> 10	> 10	0.134 ± 0.017	110	84	399 ± 115	92						
C#CCn1c(=O)c2[nH]c(CCc3cccc(OC)c3)nc2n(CCCCP(=O)(O)O)c1=O [B-2, (4-(8-(3-Methoxyphenethyl)-2,6-dioxo-1-(prop-2-yn-1-yl)-1,2,6,7-tetrahydro-3H-purin-3-yl)butyl)phosphonic acid]	0.435 ± 0.078		5.71 ± 1.23	0.0112 ± 0.0013	102	98	32 ± 11	99	91					
C#CCn1c(=O)c2c(nc(CCc3ccccc3Cl)n2C)n(CCCCP(=O)(O)O)c1=O [B-17, (4-(8-(2-Chlorophenethyl)-7-methyl-2,6-dioxo-1-(prop-2-yn-1-yl)-1,2,6,7-tetrahydro-3H-purin-3-yl)butyl)phosphonic acid]	0.00223 ± 0.00013		0.169 ± 0.06		109				114					
C#CCn1c(=O)c2c(nc(CCc3c(C)cccc3C)n2CC)n(CCCCP(=O)(O)O)c1=O [B-33, (4-(8-(2,6-Dimethylphenethyl)-7-ethyl-2,6-dioxo-1-(prop-2-yn-1-yl)-1,2,6,7-tetrahydro-3H-purin-3-yl)butyl)phosphonic acid]										113	0.0487 ± 0.0201	113	0.000543 ± 0.000186	
C#CCn1c(=O)c2[nH]c(CCc3cccc(OC)c3)nc2n(CCCCP(=O)(OCC)OCC)c1=O [C-6, Diethyl (4-(8-(3-methoxyphenethyl)-2,6-dioxo-1-(prop-2-yn-1-yl)-1,2,6,7-tetrahydro-3H-purin-3-yl)butyl)phosphonate]	> 10	> 10	> 10				> 10000							> 10
C#CCn1c(=O)c2[nH]c(CCc3ccc(OC)c(OC)c3)nc2n(CCCCP(=O)(OCC)OCC)c1=O [C-8, Diethyl (4-(8-(3,4-dimethoxyphenethyl)-2,6-dioxo-1-(prop-2-yn-1-yl)-1,2,6,7-tetrahydro-3H-purin-3-yl)butyl)phosphonate]	> 10	> 10	> 10				> 10000							> 10
CCOP(=O)(CCCCn1c(=O)n(CC)c(=O)c2[nH]c(COc3ccccc3)nc21)OCC [C-10, Diethyl (4-(1-ethyl-2,6-dioxo-8-(phenoxymethyl)-1,2,6,7-tetrahydro-3H-purin-3-yl)butyl)phosphonate]	> 10	> 10	> 10				> 10000							> 10
